# Tests used:
# Type in all cases: functional
# MDA-MB-435 [1] = assay: Cytotoxicity against human MDA-MB-435 cells after 48 hrs by SRB assay; conditions: MDA-MB-435, 48 h
# [2] = Cytotoxicity against human OVCAR5 cells assessed as cell growth at 10^-4 M after 48 hrs by SRB assay relative to control; conditions: OVCAR-5, 48 h, read-out: Activity
# SN12C = assay: Cytotoxicity against human SN12C cells assessed as cell growth at 10^-6 M after 48 hrs by SRB assay relative to control; conditions: read-out: Activity
# MOLT-4 = assay: Cytotoxicity against human MOLT4 cells assessed as cell growth at 10^-6 M after 48 hrs by SRB assay relative to control; conditions: MOLT-4, 48 h, read-out: Activity
# MDA-MB-468 [3] = assay: Cytotoxicity against human MDA-MB-468 cells after 48 hrs by SRB assay; conditions: MDA-MB-468, 48 h
# SK-MEL-2 [4] = assay: Cytotoxicity against human SK-MEL-2 cells assessed as cell growth at 10^-6 M after 48 hrs by SRB assay relative to control; conditions: SK-MEL-2, 48 h, read-out: Activity
# LOX IMVI [5] = assay: Cytotoxicity against human LOXIMVI cells assessed as cell growth at 10^-7 M after 48 hrs by SRB assay relative to control; conditions: read-out: Activity
# 786-0 = assay: Cytotoxicity against human 786-0 cells after 48 hrs by SRB assay; conditions: 786-0, 48 h
# SW-620 = assay: Cytotoxicity against human SW620 cells after 48 hrs by SRB assay; conditions: SW-620, 48 h
# SK-MEL-2 [6] = assay: Cytotoxicity against human SK-MEL-2 cells assessed as cell growth at 10^-7 M after 48 hrs by SRB assay relative to control; conditions: SK-MEL-2, 48 h, read-out: Activity
# A549 [7] = assay: Cytotoxicity against human A549 cells after 48 hrs by SRB assay; conditions: A549, 48 h
# SF-539 [8] = assay: Cytotoxicity against human SF539 cells assessed as cell growth at 10^-8 M after 48 hrs by SRB assay relative to control; conditions: SF-539, 48 h, read-out: Activity
# U-251 [9] = assay: Cytotoxicity against human U251 cells assessed as cell growth at 10^-8 M after 48 hrs by SRB assay relative to control; conditions: U-251, 48 h, read-out: Activity
# CAKI-1 = assay: Cytotoxicity against human Caki1 cells after 48 hrs by SRB assay; conditions: CAKI-1, 48 h
# DU-145 = assay: Cytotoxicity against human DU145 cells assessed as cell growth at 10^-7 M after 48 hrs by SRB assay relative to control; conditions: DU-145, 48 h, read-out: Activity
# [10] = Cytotoxicity against human Hs 578T cells assessed as cell growth at 10^-8 M after 48 hrs by SRB assay relative to control; conditions: read-out: Activity
# HCC 2998 = assay: Cytotoxicity against human HCC2998 cells assessed as cell growth at 10^-6 M after 48 hrs by SRB assay relative to control; conditions: HCC 2998, 48 h, read-out: Activity
# KM12 = assay: Cytotoxicity against human KM12 cells assessed as cell growth at 10^-8 M after 48 hrs by SRB assay relative to control; conditions: KM12, 48 h, read-out: Activity
# MDA-MB-231 = assay: Cytotoxicity against human MDA-MB-231 cells assessed as cell growth at 10^-6 M after 48 hrs by SRB assay relative to control; conditions: MDA-MB-231, 48 h, read-out: Activity
# [11] = Cytotoxicity against human NCI-ADR-RES cells after 48 hrs by SRB assay
# T47D = assay: Cytotoxicity against human T47D cells after 48 hrs by SRB assay
# MDA-MB-435 [12] = assay: Cytotoxicity against human MDA-MB-435 cells assessed as cell growth at 10^-7 M after 48 hrs by SRB assay relative to control; conditions: MDA-MB-435, 48 h, read-out: Activity
# MDA-MB-468 [13] = assay: Cytotoxicity against human MDA-MB-468 cells assessed as cell growth at 10^-8 M after 48 hrs by SRB assay relative to control; conditions: MDA-MB-468, 48 h, read-out: Activity
# SF-539 [14] = assay: Cytotoxicity against human SF539 cells assessed as cell growth at 10^-4 M after 48 hrs by SRB assay relative to control; conditions: SF-539, 48 h, read-out: Activity
# U-251 [15] = assay: Cytotoxicity against human U251 cells assessed as cell growth at 10^-7 M after 48 hrs by SRB assay relative to control; conditions: U-251, 48 h, read-out: Activity
# [16] = Cytotoxicity against human NCI-ADR-RES cells assessed as cell growth at 10^-6 M after 48 hrs by SRB assay relative to control; conditions: read-out: Activity
# LOX IMVI [17] = assay: Cytotoxicity against human LOXIMVI cells after 48 hrs by SRB assay
# A549 [18] = assay: Cytotoxicity against human A549 cells assessed as cell growth at 10^-6 M after 48 hrs by SRB assay relative to control; conditions: A549, 48 h, read-out: Activity
# [19] = Cytotoxicity against human HCT15 cells after 48 hrs by SRB assay; conditions: HCT-15, 48 h
# A498 = assay: Cytotoxicity against human A498 cells assessed as cell growth at 10^-7 M after 48 hrs by SRB assay relative to control; conditions: A498, 48 h, read-out: Activity
# NCI-H23 = assay: Cytotoxicity against human NCI-H23 cells after 48 hrs by SRB assay; conditions: NCI-H23, 48 h
# [20] = Cytotoxicity against human OVCAR5 cells after 48 hrs by SRB assay; conditions: OVCAR-5, 48 h
# ACHN = assay: Cytotoxicity against human ACHN cells assessed as cell growth at 10^-8 M after 48 hrs by SRB assay relative to control; conditions: read-out: Activity
# [21] = Cytotoxicity against human HCT116 cells assessed as cell growth at 10^-7 M after 48 hrs by SRB assay relative to control; conditions: HCT-116, 48 h, read-out: Activity
# SF-539 [22] = assay: Cytotoxicity against human SF539 cells assessed as cell growth at 10^-7 M after 48 hrs by SRB assay relative to control; conditions: SF-539, 48 h, read-out: Activity
# SF-268 = assay: Cytotoxicity against human SF268 cells assessed as cell growth at 10^-7 M after 48 hrs by SRB assay relative to control; conditions: SF-268, 48 h, read-out: Activity
# [23] = read-out: LC50 (the source's name)
smiles,measurement,setting,value
COc1ccc(CCN2COc3c([C@@H](C)CCC=C(C)C)ccc(C)c3C2)cc1OC,GI50,MDA-MB-435 [1],3.11 µM
same,TGI,MDA-MB-435 [1],10.9 µM
same,CC50,MDA-MB-435 [1]; [23],44.9 µM
same,growth at 100 µM,[2],-100%
same,growth at 1 µM,SN12C,87%
same,growth at 1 µM,MOLT-4,85%
same,GI50,MDA-MB-468 [3],1230 nM
same,LC50,MDA-MB-468 [3],7.08 µM
same,TGI,MDA-MB-468 [3],9.95 µM
same,growth at 1 µM,SK-MEL-2 [4],94%
same,growth at 0.1 µM,LOX IMVI [5],84%
same,LC50,786-0,8.72 µM
same,GI50,SW-620,1910 nM
same,TGI,SW-620,4.08 µM
same,CC50,SW-620; [23],8.72 µM
same,growth at 0.1 µM,SK-MEL-2 [6],85%
same,GI50,A549 [7],10.3 µM
same,LC50,A549 [7],96.3 µM
same,TGI,A549 [7],31.5 µM
same,growth at 0.01 µM,SF-539 [8],95%
same,growth at 0.01 µM,U-251 [9],92%
same,GI50,CAKI-1,2730 nM
same,TGI,CAKI-1,12.1 µM
same,CC50,CAKI-1; [23],41.3 µM
same,growth at 0.1 µM,DU-145,94%
same,growth at 0.01 µM,[10],78%
same,growth at 1 µM,HCC 2998,88%
same,growth at 0.01 µM,KM12,98%
same,growth at 1 µM,MDA-MB-231,91%
same,GI50,[11],2960 nM
same,"LC50 (lethal concentration, 50% cell kill)",[11],35.2 µM
same,TGI,[11],9.51 µM
same,GI50,T47D,1780 nM
same,LC50 (concentration killing 50% of cells),T47D,8.12 µM
same,TGI,T47D,3.8 µM
same,growth at 0.1 µM,MDA-MB-435 [12],95%
same,growth at 0.01 µM,MDA-MB-468 [13],75%
same,growth at 100 µM,SF-539 [14],-100%
same,growth at 0.1 µM,U-251 [15],88%
same,growth at 1 µM,[16],96%
same,GI50,LOX IMVI [17],1770 nM
same,LC50 (concentration killing 50% of cells),LOX IMVI [17],7.96 µM
same,TGI,LOX IMVI [17],3.75 µM
same,growth at 1 µM,A549 [18],95%
same,GI50,[19],2840 nM
same,TGI,[19],10.4 µM
same,CC50,[19]; [23],38.2 µM
same,growth at 0.1 µM,A498,97%
same,GI50,NCI-H23,2550 nM
same,LC50,NCI-H23,21.8 µM
same,TGI,NCI-H23,6.08 µM
same,GI50,[20],8.53 µM
same,TGI,[20],20.8 µM
same,CC50,[20]; [23],45.6 µM
same,growth at 0.01 µM,ACHN,95%
same,growth at 0.1 µM,[21],92%
same,growth at 0.1 µM,SF-539 [22],88%
same,growth at 0.1 µM,SF-268,79%

# Reference: ChEMBL document CHEMBL3390836, “Mannich- and LedererManasse-based analogues of the natural product S-(+)-curcuphenol as cancer proliferation and migration inhibitors” (Medchemcomm, 2012)
